In ChEMBL document CHEMBL4483862, “Open-source discovery of chemical leads for next-generation chemoprotective antimalarials” (2018):

Test system: Plasmodium berghei
Assay: Luciferase/luciferin-expressing antifolate-resistant parasites were used to infect a culture of HepG2 cells that were pre-incubated with compounds. Infected hepatocytes emit light due to the luciferase reaction. Assay results are presented as the percent inhibition of light emission compared to control. […]
Type: functional
Settings: sporozoite; for IC90: read-out: LUCIFERASE INFECTION ASSAY - IC90
[1] = read-out: LUCIFERASE INFECTION ASSAY - IC50

| SMILES | IC90 [µM] | IC50 [1] [µM] | further results |
| --- | --- | --- | --- |
| O=C(COc1ccc(F)cc1C(=O)c1cnn(-c2ccccc2)c1)Nc1ccc(Br)cc1F | > 10 |  | IC50 (HEPG2TOX_HILL_SLOPE 0.0675, HEPG2TOX_R_SQUARED 0.0289, PBLUC_HILL_SLOPE 1.95, PBLUC_R_SQUARED 0.148, read-out: LUCIFERASE INFECTION ASSAY - IC50): > 10 µM |
| COc1ccc(-c2nc(C(=O)Nc3ccccc3N3CCN(C)CC3)cs2)cc1OC | > 10 |  | IC50 (PBLUC_HILL_SLOPE 1.24, PBLUC_R_SQUARED 0.639, read-out: LUCIFERASE INFECTION ASSAY - IC50): 2.33 µM |
| C/C(=N\Nc1nc2ccccc2[nH]1)c1ccc(Cl)s1 | > 10 |  | IC50 (PBLUC_HILL_SLOPE 13.6, PBLUC_R_SQUARED 0.0664, read-out: LUCIFERASE INFECTION ASSAY - IC50): 9.32 µM |
| Cc1ccc(-c2cs/c(=N\c3cccnc3)n2CCCn2ccnc2)cc1C | > 10 |  | IC50 (HEPG2TOX_HILL_SLOPE 0.267, HEPG2TOX_R_SQUARED 0.885, PBLUC_HILL_SLOPE 2.25, PBLUC_R_SQUARED 0.462, read-out: LUCIFERASE INFECTION ASSAY - IC50): 5.5 µM |
| CC(NS(=O)(=O)c1ccc(-n2ncc(Cl)c(Cl)c2=O)cc1)c1ccc2ccccc2c1 (configuration not stated) | 3.82 |  | IC50 (FFLUC_HILL_SLOPE 0.605, FFLUC_R_SQUARED 0.525, HEPG2TOX_HILL_SLOPE 11.4, HEPG2TOX_R_SQUARED 0.983, PBLUC_HILL_SLOPE 12.9, PBLUC_R_SQUARED 0.58, read-out: LUCIFERASE INFECTION ASSAY - IC50): 3.22 µM |
| COc1ccc(CN2CCCN(C(=O)c3ccc(CSc4nc5ccccc5[nH]4)cc3)CC2)cc1 | > 10 |  | IC50 (HEPG2TOX_HILL_SLOPE 1.31, HEPG2TOX_R_SQUARED 0.944, read-out: LUCIFERASE INFECTION ASSAY - IC50): > 10 µM |
| COC(=O)c1cccc2c1CCCN2C(=O)CCN1C(=O)C2CCCCC2C1=O (configuration not stated) | > 10 | > 10 |  |
| Cc1cccc(-c2nc(-c3cc(C)n(-c4nnc[nH]4)c3C)cs2)c1 | > 10 | 9.67 |  |
| O=C(Nc1cccc(F)c1)Nc1ccc2nc(-c3cccs3)nn2c1 | 4.34 |  | IC50 (PBLUC_HILL_SLOPE 208, PBLUC_R_SQUARED 0.19, read-out: LUCIFERASE INFECTION ASSAY - IC50): 4.29 µM |
| O=c1c(-c2cccc(Cl)c2)c[nH]n1-c1cccc(C(F)(F)F)c1 | > 9.74 |  | IC50 (HEPG2TOX_HILL_SLOPE 3.35, HEPG2TOX_R_SQUARED 0.846, PBLUC_HILL_SLOPE 3.63, PBLUC_R_SQUARED 0.619, read-out: LUCIFERASE INFECTION ASSAY - IC50): 5.69 µM |
| O=C(Nc1nc2ccccn2c1C(=O)NC1CCCC1)c1cc(F)ccc1F | 6.63 |  | IC50 (HEPG2TOX_HILL_SLOPE 2.22, HEPG2TOX_R_SQUARED 0.565, PBLUC_HILL_SLOPE 4.18, PBLUC_R_SQUARED 0.45, read-out: LUCIFERASE INFECTION ASSAY - IC50): 3.92 µM |
| Cn1c(NCc2ccccc2)nc2cnc(Nc3cccc(Oc4ccccc4)c3)cc21 | 3.9 |  | IC50 (HEPG2TOX_HILL_SLOPE 16.8, HEPG2TOX_R_SQUARED 0.905, PBLUC_HILL_SLOPE 16.2, PBLUC_R_SQUARED 0.526, read-out: LUCIFERASE INFECTION ASSAY - IC50): 3.4 µM |
| Oc1cc(C(F)(F)F)nc(-c2ccccn2)n1 | 5.54 |  | IC50 (HEPG2TOX_HILL_SLOPE 1.09, HEPG2TOX_R_SQUARED 0.904, PBLUC_HILL_SLOPE 3.05, PBLUC_R_SQUARED 0.293, read-out: LUCIFERASE INFECTION ASSAY - IC50): 8.2 µM |
| CCOC(=O)c1c(-c2ccc(F)cc2)csc1NC(=O)CSc1nc2c(c(CC)c1C#N)C(=O)CC(C)(C)C2 | > 10 |  | IC50 (FFLUC_HILL_SLOPE 86.7, FFLUC_R_SQUARED 0.56, PBLUC_HILL_SLOPE 13.6, PBLUC_R_SQUARED 0.125, read-out: LUCIFERASE INFECTION ASSAY - IC50): 8.71 µM |
| Cc1ccc2nc(NC(=O)c3ccc(Cl)cc3Cl)c(C(=O)NC3CCCC3)n2c1 | 1.13 |  | IC50 (FFLUC_HILL_SLOPE 11.5, FFLUC_R_SQUARED 0.0941, HEPG2TOX_HILL_SLOPE 0.896, HEPG2TOX_R_SQUARED 0.951, PBLUC_HILL_SLOPE 3.11, PBLUC_R_SQUARED 0.82, read-out: LUCIFERASE INFECTION ASSAY - IC50): 0.559 µM |
| C=CCNC(=O)NC(=O)CSc1nnc(-c2ccc(OC)cc2)n1-c1cccc(C(F)(F)F)c1 | 6.91 |  | IC50 (HEPG2TOX_HILL_SLOPE 2.39, HEPG2TOX_R_SQUARED 0.903, PBLUC_HILL_SLOPE 3.60, 2.97, PBLUC_R_SQUARED 0.951, 0.459, read-out: LUCIFERASE INFECTION ASSAY - IC50): 3.56 µM |
| COc1ccc(/N=c2\scc(-c3ccc(OC(F)F)cc3)n2/N=C/c2ccccc2[N+](=O)[O-])cc1 | 7.35 |  | IC50 (FFLUC_HILL_SLOPE 12.1, FFLUC_R_SQUARED 0.633, PBLUC_HILL_SLOPE 109, PBLUC_R_SQUARED 0.183, read-out: LUCIFERASE INFECTION ASSAY - IC50): 7.2 µM |
| O=C(NNC(=O)c1ccccc1Nc1ccccc1)c1ccccc1O | 9.6 | 8.81 |  |
| O=C(Nc1ccc(Cl)c(Cl)c1)Nc1ccc2c(c1)OCCO2 | > 9.73 | > 9.73 |  |
| CCCNC(=O)c1c(NC(=O)c2ccc(F)cc2)nc2ccc(C)cn12 | > 9.31 |  | IC50 (PBLUC_HILL_SLOPE 1.32, PBLUC_R_SQUARED 0.773, read-out: LUCIFERASE INFECTION ASSAY - IC50): 3.1 µM |
| COc1ccc2nc(-c3ccccc3)cc(NCCN(C)C)c2c1 | > 10.3 |  | IC50 (PBLUC_HILL_SLOPE 1.97, PBLUC_R_SQUARED 0.162, read-out: LUCIFERASE INFECTION ASSAY - IC50): 4.55 µM |

| SMILES | IC90 [µM] | IC50 [1] [µM] | further results |
| --- | --- | --- | --- |
| COc1ccc(-c2cnc3sc(NCCc4ccc(S(N)(=O)=O)cc4)nn23)cc1OC | 6.81 |  | IC50 (PBLUC_HILL_SLOPE 16.2, PBLUC_R_SQUARED 0.321, read-out: LUCIFERASE INFECTION ASSAY - IC50): 5.94 µM |
| Cc1cc(C)n(CCC(=O)N2CCN(C(c3ccc(F)cc3)c3ccc(F)cc3)CC2)n1 | > 10 |  | IC50 (HEPG2TOX_HILL_SLOPE 1.37, HEPG2TOX_R_SQUARED 0.338, PBLUC_HILL_SLOPE 18.9, PBLUC_R_SQUARED 0.322, read-out: LUCIFERASE INFECTION ASSAY - IC50): 9.4 µM |
| Cc1cn2c(/C=C/C(=O)Nc3cccc(Cl)c3N3CCOCC3)c(C)nc2s1 | > 10 | > 10 |  |
| CCCCc1[nH]nc2ccnc(-c3ccsc3)c12 | > 10 | > 10 |  |
| CC(=O)c1cccc(-c2cnc3ccc(-c4cccnc4)nn23)c1 | 4.84 |  | IC50 (HEPG2TOX_HILL_SLOPE 1.81, HEPG2TOX_R_SQUARED 0.991, PBLUC_HILL_SLOPE 1.06, PBLUC_R_SQUARED 0.743, read-out: LUCIFERASE INFECTION ASSAY - IC50): 0.606 µM |
| FC(F)Sc1ccc(NC(=S)NCC(c2ccco2)N2CCCCC2)cc1 (configuration not stated) | > 10 | 6.18 |  |
| Cc1cc(C(=O)COC(=O)c2ccccc2S(=O)(=O)N(C)c2ccccc2)c(C)n1C1CC1 | > 10 |  | IC50 (HEPG2TOX_HILL_SLOPE 8.61, HEPG2TOX_R_SQUARED 0.607, read-out: LUCIFERASE INFECTION ASSAY - IC50): > 10 µM |
| Cc1cccc(Nc2ccccc2C(=O)Oc2ccc(Cl)cc2Cc2ccccc2)c1C | > 10 |  | IC50 (HEPG2TOX_HILL_SLOPE 0.105, HEPG2TOX_R_SQUARED 0.052, read-out: LUCIFERASE INFECTION ASSAY - IC50): > 10 µM |
| Cn1c(S)nnc1-c1ccc(C(C)(C)C)cc1 | > 13.3 | > 13.3 |  |
| CC1CCN(Cc2nc3scc(-c4ccccc4)c3c(=O)n2CC(=O)N2CCc3ccccc32)CC1 | > 10 | > 10 |  |
| COc1ccc(-c2cnc3cnc(-c4cccc(C(=O)N(C)C)c4)cn23)cc1 | 4.08 |  | IC50 (PBLUC_HILL_SLOPE 11.5, PBLUC_R_SQUARED 0.453, read-out: LUCIFERASE INFECTION ASSAY - IC50): 3.37 µM |
| COc1cc(Nc2ccn3ncc(-c4ccc(OC(F)(F)F)cc4)c3n2)cc(OC)c1OC | 5.74 |  | IC50 (PBLUC_HILL_SLOPE 5.07, PBLUC_R_SQUARED 0.236, read-out: LUCIFERASE INFECTION ASSAY - IC50): 3.72 µM |
| COc1cc2c(cc1OC)CN(c1nc(CN3CCOCC3)nc3sc4c(c13)CCC(C)C4)CC2 (configuration not stated) | 3.91 |  | IC50 (PBLUC_HILL_SLOPE 15.9, PBLUC_R_SQUARED 0.656, read-out: LUCIFERASE INFECTION ASSAY - IC50): 3.41 µM |
| Cc1cccc(C(=O)OC(C)C(=O)Nc2sccc2C#N)c1N (configuration not stated) | > 10 |  | IC50 (PBLUC_HILL_SLOPE 38.2, PBLUC_R_SQUARED 0.283, read-out: LUCIFERASE INFECTION ASSAY - IC50): 9.97 µM |
| Cc1ccc(S(=O)(=O)N(C)Cc2ccc(-c3nnc4n3-c3ccccc3SC4)cc2)cc1 | > 10 | 3.08 |  |
| Cc1ccccc1C(c1ncccc1C)N(C)C(=O)C1CCN(C(=O)c2cccc(Cl)c2)CC1 (configuration not stated) | > 6.93 | > 6.93 |  |
| CCOc1c(Br)cc(C2NCC(c3cccc(OC)c3OC)c3c2[nH]c2ccccc32)cc1OC (configuration not stated) | > 10 |  | IC50 (FFLUC_HILL_SLOPE 3.42, FFLUC_R_SQUARED 0.537, read-out: LUCIFERASE INFECTION ASSAY - IC50): > 10 µM |
| CCCCN(C)S(=O)(=O)c1ccc(NC(=O)c2ccc3nccnc3c2)cc1 | > 10 | > 10 |  |
| CC(C)(C)OC(=O)N1CCc2nc(NC(=O)c3csc(-c4ccco4)n3)sc2C1 | > 10 |  | IC50 (PBLUC_HILL_SLOPE 10.5, PBLUC_R_SQUARED 0.574, read-out: LUCIFERASE INFECTION ASSAY - IC50): 9.17 µM |
| Nc1nccnc1C(=O)Nc1nnc(-c2cccc(Br)c2)[nH]1 | > 10 | > 10 |  |
